According to patent US9067898B1, “Isothiazole derivatives as GPR120 agonists for the treatment of type II diabetes” (Janssen Pharmaceutica NV, priority 2014, dated 2015):

Experiments:
[1] = biological target: T1, short form of the GPR120 receptor (GPR120S) (Homo sapiens, UniProt Q5NUL3); assay: Human GPR120 DiscoveRx PathHunter Beta-Arrestin assay, Procedure β-arrestin B; format: cell-based; settings: PathHunter CHO-K1 GPR120S β-Arrestin cell line, 5000 cells/well, read-out: hGPR120 β-arrestin B EC50
T1 construct: host or cells: PathHunter CHO-K1 GPR120S β-Arrestin Cell Line
Description: The binding of an agonist (medium/long chain fatty acids or small molecule agonists) to the G-protein-coupled receptor GPR120 activates phospholipase C, leading to release of intracellular Ca^+2 through the generation of inositol 1,4,5-trisphosphate (InsP3 or IP3). GPR120 activation can also trigger intracellular signaling via recruitment of Beta-Arrestin. In the present method, agonist-induced activation of the human GPR120 receptor is monitored through the use of PathHunter CHO-K1 GPR120 Beta-Arrestin Cell Line engineered by DiscoveRx, as detailed below. The cell lines are designed to co-express both the ProLink/Enzyme Donor (PK)-tagged GPCR and the Enzyme […] (EA)-tagged Beta-Arrestin fusion proteins. Upon GPR120 receptor stimulation/activation, the EA-tagged Beta-Arrestin portion is translocated to the tagged receptor, where the two enzyme fragments are brought within close proximity. Under these conditions, these fragments can interact and form an active Beta-gal enzyme complex through Enzyme Fragment Complementation (EFC). This active Beta-gal complex can enzymatically hydrolyse the substrate to produce a detectable light signal; therefore, activation as a function of agonist concentration can be expressed as an EC50 value to determine relative compound activities. This in vitro assay therefore serves to assess compound agonist activity of the GPR120. Procedure β-Arrestin A: In Procedure β-arrestin A, the cell used were PathHunter CHO-K1 GPR120 β-Arrestin Cell Line, expressing the long form of human GPR120 (Genbank accession number NM 181745), with 3000 cells per well. Procedure β-Arrestin B: In Procedure 3-arrestin B the cells used were PathHunter CHO-K1 GPR120S β-Arrestin Cell Line, expressing the short form of the GPR120 receptor (Accession #NM_181745), with 5000 cells/well. Assay Procedure:
The selected CHO-K1 GPR120 β-Arrestin cells were cultured in Ham's F12 media supplemented with 10% fetal bovine serum (FBS), 1% Glutamine, lx p/s, 800 μg/mL G418 and 300 μg/mL Hygromycin B (for selection). Cell stocks were maintained and grown in a sub-confluent state using standard cell culture procedures. The day before the experiment, the cells were harvested with non-enzymatic cell dissociation buffer and re-suspended in complete growth media at the desired concentration. A Corning 384-plate was then seeded with the proper number of cells in a volume of 25 μL, per well. The seeded plates were incubated overnight at 37° C.
On the day of the experiment, the Assay Buffer containing (a) HBSS with Ca^++ and Mg^++, (b) 20 mM HEPES, and (c) 0.1% BSA stabilizer (pH 7.4) was prepared. The growth medium was gently removed from the cell plates and 20 μL of Assay Buffer added to each well. The plate was then incubated at 37° C. for 60 min. Test compounds were serially diluted in Assay Buffer to desired concentrations (more particularly to one or more of the following μM concentrations: 25, 12.5, 6.25, 3.125, 1.5625, 0.78125, 0.390625, 0.1953125, 0.09765625, 0.048828125, 0.024414063, 0.012207031). Five μL of compound dilution was then added to each well and the plate incubated at 37° C. for 90 min. The detection reagents were prepared according to the manufacture's instruction. Twelve μL of the detection reagents were added to each well and the plate incubated at room temperature for 60 min.
The plates were read on an EnVision instrument, using Protocol name: Luminescence, Plate type: 384 Costar, Measurement height: 3 mm, Measurement time: 1 s, Aperture: 384 Plate aperture. The % activity relative to the positive control was calculated using the following equation:
The % Activity values were plotted versus the concentration of test compound and fitted to a sigmoidal dose-response curve with a Hill slope=1 (fixed value) using nonlinear regression with GraphPad Prism 5.0 to calculate the EC50 values. […]

Human GPR120 short form = biological target: T2, Human GPR120 short form (Homo sapiens, UniProt Q5NUL3); assay: Human GPR120 calcium flux assay (FLIPR), Procedure Calcium A; format: cell-based; settings: HEK-293 cells expressing human GPR120 short form, 2500 cells/well; read-out: GPR120 Ca2+ Assay A EC50
T2 construct: expressed in transfected cells
T2 sequence (Q5NUL3 1-361): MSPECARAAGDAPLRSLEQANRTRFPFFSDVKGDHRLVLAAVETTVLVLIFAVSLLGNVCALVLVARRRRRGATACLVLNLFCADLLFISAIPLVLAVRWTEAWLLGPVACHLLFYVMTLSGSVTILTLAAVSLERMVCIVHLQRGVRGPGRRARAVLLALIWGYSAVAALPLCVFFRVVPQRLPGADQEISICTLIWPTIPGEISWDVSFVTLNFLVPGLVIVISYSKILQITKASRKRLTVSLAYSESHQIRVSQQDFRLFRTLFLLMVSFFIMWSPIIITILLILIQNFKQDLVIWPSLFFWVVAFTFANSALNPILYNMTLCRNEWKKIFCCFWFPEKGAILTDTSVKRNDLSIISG
Method in brief: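 HEK293 cells stably expressing the short isoform (NM_001195755.1), 2500/well, starved 1 h, then loaded with Fluo-4 NW plus probenecid (30 min 37 °C, 15 min RT). Compound solutions 0.012–100 μM, 0.2% DMSO final; FLIPR read 300 s after addition. EC50 from Fmax−Fmin fitted to variable-slope sigmoid (Hill <2).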

T1 sequence (P32121 whole entry partner, one chain of several): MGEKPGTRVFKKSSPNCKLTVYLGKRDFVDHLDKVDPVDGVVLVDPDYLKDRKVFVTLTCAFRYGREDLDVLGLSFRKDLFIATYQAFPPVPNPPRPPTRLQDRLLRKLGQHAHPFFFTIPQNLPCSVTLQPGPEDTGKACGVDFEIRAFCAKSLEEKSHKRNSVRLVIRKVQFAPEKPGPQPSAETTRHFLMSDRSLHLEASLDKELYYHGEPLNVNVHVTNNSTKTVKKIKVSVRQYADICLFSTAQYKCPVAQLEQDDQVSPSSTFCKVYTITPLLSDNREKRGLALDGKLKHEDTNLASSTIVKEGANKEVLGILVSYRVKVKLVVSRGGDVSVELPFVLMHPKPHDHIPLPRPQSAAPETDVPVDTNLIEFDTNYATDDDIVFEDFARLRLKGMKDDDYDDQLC

SMILES | EC50 [1] [nM] | EC50 (Human GPR120 short form) [nM]
Cc1ccc(-c2snc(Cl)c2COc2ccc(CCC(=O)O)c(C(F)(F)F)c2)c(F)c1 [Cpd 175, 3-(4-[[3-chloro-5-(2-fluoro-4-methylphenyl)-1,2-thiazol-4-yl]methoxy]-2-(trifluoromethyl)phenyl)propanoic acid] | 230 | 247
Cc1ccc(-c2snc(C(F)(F)F)c2COc2ccc(CCC(=O)O)c(C)c2C)c(C)c1 [Cpd 184, 3-(4-[[5-(2,4-dimethylphenyl)-3-(trifluoromethyl)-1,2-thiazol-4-yl]methoxy]-2,3-dimethylphenyl) propanoic acid] | 997 | 300
CCc1ccc(-c2nsc(C(F)(F)F)c2COc2c(F)cc(CC(C)C(=O)O)cc2F)c(F)c1 (stereo not shown) [Cpd 188, 3-(4-((3-(4-ethyl-2-fluorophenyl)-5-(trifluoromethyl)isothiazol-4-yl)methoxy)-3,5-difluorophenyl)-2-methylpropanoic acid] | 153 | 306
CCc1ccc(-c2nsc(C(F)(F)F)c2COc2c(F)cc(CCC(=O)O)cc2F)cc1F [Cpd 194, 3-(4-((3-(4-ethyl-3-fluorophenyl)-5-(trifluoromethyl)isothiazol-4-yl)methoxy)-3,5-difluorophenyl)propanoic acid] | 40 | 362
CC(Cc1ccc(OCc2c(-c3ccc(Cl)cc3)nsc2C(F)(F)F)cc1)C(=O)O (stereo not shown) [Cpd 195, 3-(4-[[3-(4-chlorophenyl)-5-(trifluoromethyl)-1,2-thiazol-4-yl]methoxy]phenyl)-2-methylpropanoic acid] | 307 | 366
CC(Cc1cc(F)c(OCc2c(-c3ccc(F)cc3F)nsc2C(F)(F)F)c(F)c1)C(=O)O (stereo not shown) [Cpd 196, 3-(4-((3-(2,4-difluorophenyl)-5-(trifluoromethyl)isothiazol-4-yl)methoxy)-3,5-difluorophenyl)-2-methylpropanoic acid] | 195 | 370
COc1cc(F)c(-c2nsc(C(F)(F)F)c2COc2c(F)cc(CCC(=O)O)cc2F)c(F)c1 [Cpd 197, 3-(4-[[3-(2,6-difluoro-4-methoxyphenyl)-5-(trifluoromethyl)-1,2-thiazol-4-yl]methoxy]-3,5-difluorophenyl)propanoic acid] | 224 | 392
Cc1c(CCC(=O)O)ccc(OCc2c(C3CCC(F)(F)C3)nsc2C(F)(F)F)c1C (stereo not shown) [Cpd 199, 3-(4-[[3-(3,3-difluorocyclopentyl)-5-(trifluoromethyl)-1,2-thiazol-4-yl]methoxy]-2,3-dimethylphenyl)propanoic acid] | 622 | 423
Cc1ccccc1-c1snc(C(F)(F)F)c1COc1ccc(CCC(=O)O)c(C(F)(F)F)c1 [Cpd 203, 3-(4-[[5-(2-methylphenyl)-3-(trifluoromethyl)-1,2-thiazol-4-yl]methoxy]-2-(trifluoromethyl)phenyl) propanoic acid] | 1480 | 478
O=C(O)C1CC1c1ccc(OCc2c(-c3ccc(Cl)cc3)nsc2C(F)(F)F)cc1 (stereo not shown) [Cpd 205, 2-(4-((3-(4-chlorophenyl)-5-(trifluoromethyl)isothiazol-4-yl)methoxy)phenyl)cyclopropanecarboxylic acid] | 741 | 530
O=C(O)CCc1ccc(OCc2c(C(F)(F)F)nsc2-c2ccc(Cl)cc2)cc1Cl [Cpd 208, 3-(2-chloro-4-[[5-(4-chlorophenyl)-3-(trifluoromethyl)-1,2-thiazol-4-yl]methoxy]phenyl)propanoic acid] | 554 | 578
Cc1cc(CCC(=O)O)c(C(F)(F)F)cc1OCc1c(Cl)nsc1-c1ccccc1C [Cpd 210, 3-(4-((3-chloro-5-(o-tolyl)isothiazol-4-yl)methoxy)-5-methyl-2-(trifluoromethyl)phenyl)propanoic acid] | 1050 | 580
CCc1ccc(-c2nsc(C(F)(F)F)c2COc2c(F)cc(CC(C)C(=O)O)cc2F)cc1F (stereo not shown) [Cpd 212, 3-(4-((3-(4-ethyl-3-fluorophenyl)-5-(trifluoromethyl)isothiazol-4-yl)methoxy)-3,5-difluorophenyl)-2-methylpropanoic acid] | 74 | 600
CCc1cc(CCC(=O)O)c(C(F)(F)F)cc1OCc1c(Cl)nsc1-c1ccccc1C [Cpd 215, 3-(4-((3-chloro-5-(o-tolyl)isothiazol-4-yl)methoxy)-5-ethyl-2-(trifluoromethyl)phenyl)propanoic acid] | 2140 | 648
Cc1ccc(-c2snc(C(F)(F)F)c2COc2ccc(CCC(=O)O)c(C(F)(F)F)c2)c(F)c1 [Cpd 221, 3-(4-[[5-(2-fluoro-4-methylphenyl)-3-(trifluoromethyl)-1,2-thiazol-4-yl]methoxy]-2-(trifluoromethyl)phenyl)propanoic acid] | 731 | 756
COc1cc(OCc2c(Cl)nsc2-c2ccccc2C)ccc1CCC(=O)O [Cpd 222, 3-(4-((3-chloro-5-(o-tolyl)isothiazol-4-yl)methoxy)-2-methoxyphenyl)propanoic acid] | 1950 | 757
Cc1c(CCC(=O)O)ccc(OCc2c(-c3ccc(C(F)(F)F)cc3)nsc2C(F)(F)F)c1C [Cpd 224, 3-(2,3-dimethyl-4-[[5-(trifluoromethyl)-3-[4-(trifluoromethyl)phenyl]-1,2-thiazol-4-yl]methoxy]phenyl)propanoic acid] | 229 | 831
CCc1ccc(-c2nsc(C(F)(F)F)c2COc2ccc(CCC(=O)O)c(C)c2C)c(F)c1 [Cpd 225, 3-(4-((3-(4-ethyl-2-fluorophenyl)-5-(trifluoromethyl)isothiazol-4-yl)methoxy)-2,3-dimethylphenyl)propanoic acid] | 227 | 840
CCc1cc(OCc2c(Cl)nsc2-c2ccccc2C)ccc1CCC(=O)O [Cpd 227, 3-(4-[[3-chloro-5-(2-methylphenyl)-1,2-thiazol-4-yl]methoxy]-2-ethylphenyl)propanoic acid] | 3780 | 867
COc1cc(F)c(-c2nsc(C(F)(F)F)c2COc2ccc(CCC(=O)O)c(C)c2C)c(F)c1 [Cpd 229, 3-(4-[[3-(2,6-difluoro-4-methoxyphenyl)-5-(trifluoromethyl)-1,2-thiazol-4-yl]methoxy]-2,3-dimethylphenyl)propanoic acid] | 1810 | 936
